Test results published in paper PMC10304650 (Journal of medicinal chemistry, 2023).

Columns and labels:
[1] = system: other CK1 isoforms; test: Specificity among CK1 isoforms; type: biochemical
[2] = biological target: 97 kinases; test: KINOMEscan profiling; type: binding; conditions: 97 kinases examined
[3] = system: phosphorylation of 4E-BP1 in T24 cells; test: Phosphorylation of 4E-BP1 by western blot; type: cell-based, human; conditions: 1 μM, 24h
[4] = system: bladder cancer cell lines; test: Cell proliferation, CellTiter-Glo, 72 hours; type: cell-based, human; conditions: three bladder cancer cell lines

## Fc1ccc2[nH]c(CNc3nc(N4CCOCC4)nc4c3ncn4-c3ccc4ccccc4c3)nc2c1F [SR-4133, N-((4,5-difluoro-1H-benzo[d]imidazol-2-yl)methyl)-2-morpholino-9-(naphthalen-2-yl)-9Hpurin-6-amine]
[1]
  Inhibition of other CK1 isoforms: do not inhibit
[2]
  KINOMEscan binding affinity: weak binding affinity only to CK1δ, PDGFRB, and TRKA
[3]
  Inhibition of phosphorylation of T37/46, S65 and T70 of 4E-BP1: blocks the phosphorylation
[4]
  Antiproliferative potency, EC50: high nanomolar

## COc1ccc(-n2cnc3c(NCc4nc5c(F)c(F)ccc5[nH]4)nc(N4CCOCC4)nc32)cc1 [SR-4310, N-((6,7-difluoro-1H-benzo[d]imidazol-2-yl)methyl)-9-(4-methoxyphenyl)-2-morpholino-9H-purin-6-amine]
[1]
  Inhibition of other CK1 isoforms: do not inhibit
[4]
  Antiproliferative potency, EC50: nanomolar
